From ChEMBL document CHEMBL1138458, “Fructose-1,6-bisphosphatase inhibitors. 1. Purine phosphonic acids as novel AMP mimics” (J Med Chem, 2009)

Legend:
[1] = target: T1, Fructose-1,6-bisphosphatase 1 (Homo sapiens, UniProt P09467); assay: Inhibition of human liver FBPase expressed in Escherichia coli by spectrophotometry
T1 sequence (P09467 whole entry): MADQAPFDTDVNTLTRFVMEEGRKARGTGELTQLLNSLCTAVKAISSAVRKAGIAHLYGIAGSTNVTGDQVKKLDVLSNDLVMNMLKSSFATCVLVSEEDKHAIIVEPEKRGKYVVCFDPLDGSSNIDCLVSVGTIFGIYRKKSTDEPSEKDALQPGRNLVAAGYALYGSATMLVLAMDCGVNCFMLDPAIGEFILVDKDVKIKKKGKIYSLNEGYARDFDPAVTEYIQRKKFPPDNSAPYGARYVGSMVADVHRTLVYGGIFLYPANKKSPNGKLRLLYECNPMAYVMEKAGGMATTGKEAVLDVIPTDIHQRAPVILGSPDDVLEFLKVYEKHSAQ

Hepatocyte = assay: Inhibition of glucose production in rat primary hepatocytes treated for 15 to 30 mins prior to gluconeogenic substrate dihydroxyacetone addition; assay type: functional, cell-based
[2] = target: T2, Fructose-1,6-bisphosphatase 1 (Rattus norvegicus, UniProt P19112); assay: Inhibition of rat liver FBPase
T2 sequence (P19112 whole entry): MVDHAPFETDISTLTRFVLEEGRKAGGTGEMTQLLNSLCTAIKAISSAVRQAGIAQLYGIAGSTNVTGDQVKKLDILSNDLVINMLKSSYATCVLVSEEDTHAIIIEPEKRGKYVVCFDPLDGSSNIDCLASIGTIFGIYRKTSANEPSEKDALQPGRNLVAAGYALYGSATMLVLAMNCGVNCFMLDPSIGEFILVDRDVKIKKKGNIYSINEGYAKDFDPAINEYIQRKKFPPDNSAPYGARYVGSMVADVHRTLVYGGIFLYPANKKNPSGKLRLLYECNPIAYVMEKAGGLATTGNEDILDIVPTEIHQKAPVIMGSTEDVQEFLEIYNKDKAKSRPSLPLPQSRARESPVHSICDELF

Adenosine kinase = Adenosine kinase (Homo sapiens, UniProt P55263); assay: Inhibition of human recombinant adenosine kinase expressed in Escherichia coli
[3] = Inhibition of pig heart AMP deaminase; design: species or system Sus scrofa
[4] = Inhibition of New Zealand white rabbit liver phosphofructokinase; design: species or system Oryctolagus cuniculus
Rattus norvegicus [5] = assay: Oral bioavailability in fasted Sprague-Dawley rat assessed as urinary excretion of phosphonic acid up to 300 mg/kg; assay type: ADME, organism-based, Urine; details: in vivo
[6] = target: T3, Fructose-1,6-bisphosphatase 1 (Homo sapiens) (UniProt P09467)
T3 sequence (whole entry): T1 sequence (P09467 whole entry)
Description: Displacement of [3H]AMP from human liver FBPase

[7] = target: T4, Glycogen phosphorylase, muscle form (Oryctolagus cuniculus, UniProt P00489); assay: Inhibition of rabbit muscle glycogen phosphorylase
T4 sequence (P00489 whole entry): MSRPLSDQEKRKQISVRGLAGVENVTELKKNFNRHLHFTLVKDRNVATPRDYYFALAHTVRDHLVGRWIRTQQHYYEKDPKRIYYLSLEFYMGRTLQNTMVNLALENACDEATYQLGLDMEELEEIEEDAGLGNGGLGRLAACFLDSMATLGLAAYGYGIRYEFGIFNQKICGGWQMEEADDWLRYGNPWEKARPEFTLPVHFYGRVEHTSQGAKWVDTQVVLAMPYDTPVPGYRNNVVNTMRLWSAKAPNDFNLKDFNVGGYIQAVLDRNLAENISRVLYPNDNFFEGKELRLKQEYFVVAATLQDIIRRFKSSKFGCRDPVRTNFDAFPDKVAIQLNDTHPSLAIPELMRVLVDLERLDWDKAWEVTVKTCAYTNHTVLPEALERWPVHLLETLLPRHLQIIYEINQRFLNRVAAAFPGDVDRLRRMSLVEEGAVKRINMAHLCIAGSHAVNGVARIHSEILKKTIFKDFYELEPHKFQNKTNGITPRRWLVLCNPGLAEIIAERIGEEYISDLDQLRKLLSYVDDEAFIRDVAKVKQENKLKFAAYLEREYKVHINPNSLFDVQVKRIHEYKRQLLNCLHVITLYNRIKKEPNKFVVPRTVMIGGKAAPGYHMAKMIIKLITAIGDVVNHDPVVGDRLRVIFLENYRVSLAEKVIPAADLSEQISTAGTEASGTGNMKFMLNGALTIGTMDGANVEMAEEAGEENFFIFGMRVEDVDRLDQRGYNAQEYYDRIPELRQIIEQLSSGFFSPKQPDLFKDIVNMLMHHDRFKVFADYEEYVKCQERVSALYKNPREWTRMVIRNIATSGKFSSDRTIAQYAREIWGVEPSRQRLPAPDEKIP

[8] = Plasma concentration in overnight-fasted Sprague-Dawley rat at 20 mg/kg, ip after 1 hr; assay type: ADME, organism-based; design: dose 20 mg/kg, route intraperitoneal
Liver [9] = assay: Drug concentration in overnight-fasted Sprague-Dawley rat liver at 20 mg/kg, ip after 1 hr; assay type: ADME, organism-based; design: dose 20 mg/kg, route intraperitoneal; details: in vivo
Rattus norvegicus [10] = assay: Reduction in blood glucose level in overnight-fasted Sprague-Dawley rat at 20 mg/kg, ip within 1 hr; assay type: organism-based; design: dose 20 mg/kg, route intraperitoneal; scale not given: the % may be the effect or the level left; details: in vivo
Rattus norvegicus [11] = assay: Increase in fructose-1,6-bisphosphate level in overnight-fasted Sprague-Dawley rat liver at 20 mg/kg, ip relative to control; assay type: organism-based; design: dose 20 mg/kg, route intraperitoneal; details: in vivo
Liver [12] = assay: Drug concentration in overnight-fasted Sprague-Dawley rat liver assessed as {5-[6-Amino-9-(2,2-dimethyl-propyl)-9H-purin-8-yl]-furan-2-yl}- phosphonic acid level at 50 mg/kg, po after 1 hr; assay type: ADME, organism-based; design: dose 50 mg/kg, route oral; details: in vivo
Liver [13] = assay: Drug concentration in overnight-fasted Sprague-Dawley rat liver assessed as {5-[6-Amino-9-(2,2-dimethyl-propyl)-9H-purin-8-yl]-furan-2-yl}- phosphonic acid level at 50 mg/kg, po after 2 hrs; assay type: ADME, organism-based; design: dose 50 mg/kg, route oral; details: in vivo

Sequence of Adenosine kinase (P55263 whole entry): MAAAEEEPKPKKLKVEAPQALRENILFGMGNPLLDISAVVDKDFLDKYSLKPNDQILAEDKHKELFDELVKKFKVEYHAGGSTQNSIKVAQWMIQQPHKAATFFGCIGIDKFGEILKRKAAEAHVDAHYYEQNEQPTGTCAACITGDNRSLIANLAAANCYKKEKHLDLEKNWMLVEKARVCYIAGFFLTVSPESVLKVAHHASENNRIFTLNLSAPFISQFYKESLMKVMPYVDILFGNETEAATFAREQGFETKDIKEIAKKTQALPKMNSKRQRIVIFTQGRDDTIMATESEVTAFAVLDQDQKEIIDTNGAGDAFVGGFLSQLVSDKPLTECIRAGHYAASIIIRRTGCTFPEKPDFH

SMILES	IC50 [1]	EC50 (Hepatocyte)	further results
Nc1ncnc2c1nc(-c1ccc(C(=O)O)o1)n2CCc1ccccc1	> 100 µM		
CN(C)c1ncnc2c1nc(-c1ccc(P(=O)(O)O)o1)n2CCc1ccccc1	250 µM		
CC(C)(C)CCn1c(-c2ccc(P(=O)(O)O)o2)nc2c(N)ncnc21	1.6 µM		
Nc1ncnc2c1nc(-c1ccc(P(=O)(O)O)o1)n2CCc1ccccc1		5 µM	IC50 [2]: 40 µM; IC50 (Adenosine kinase): > 100 µM; IC50 [3]: 6.7 µM; EC50 [4]: > 200 µM; F (Rattus norvegicus [5]): < 5%
Nc1ncnc2c1nc(-c1ccc(S(=O)(=O)O)o1)n2CCc1ccccc1	150 µM		
C[C@H]1O[C@@H](n2c(NCCP(=O)(O)O)nc3c(N)ncnc32)[C@H](O)[C@@H]1O	100 µM		
CCn1c(-c2ccc(P(=O)(O)O)o2)nc2c(N)ncnc21	1.8 µM		
CSc1nc(N)c2nc(-c3ccc(P(=O)(O)O)o3)n(CC(C)(C)C)c2n1	1.1 µM	8.5 µM	IC50 [2]: 4 µM
NC(=O)c1ncn([C@@H]2O[C@H](COP(=O)(O)O)[C@@H](O)[C@H]2O)c1N	12 µM		ED50 [6]: 250 µM
Nc1ncnc2c1nc(-c1ccc(P(=O)(O)O)o1)n2CCC1CCCCC1		90 µM	IC50 [2]: 20 µM; ED50 [6]: 35 µM
CC(C)(CCl)Cn1c(-c2ccc(P(=O)(O)O)o2)nc2c(N)ncnc21		7.5 µM	IC50 [2]: > 2 µM
CN(C)CC(C)(C)Cn1c(-c2ccc(P(=O)(O)O)o2)nc2c(N)ncnc21	> 10 µM		
Nc1ncnc2c1nc(CCO[PH](=O)O)n2CCc1ccccc1	> 1000 µM		
COc1cc2c(c(OC)c1OC)C(=O)OC2OP(=O)(OC1OC(=O)c2c1cc(OC)c(OC)c2OC)c1ccc(-c2nc3c(N)ncnc3n2CCc2ccccc2)o1 (centres undefined)		75 µM	
Nc1ncnc2c1nc(NCCOP(=O)(O)O)n2[C@@H]1O[C@H](CO)[C@@H](O)[C@H]1O	140 µM		
CC(C)Cn1c(-c2ccc(P(=O)(O)O)o2)nc2c(N)ncnc21	1.5 µM	18 µM	IC50 [2]: 7 µM
Nc1ncnc2c1nc(/C=C/C(=O)O)n2[C@@H]1O[C@H](CO)[C@@H](O)[C@H]1O	> 100 µM		
CC(=O)OC1CCCC(OP(=O)(OC2CCCC(OC(C)=O)C2)c2ccc(-c3nc4c(N)ncnc4n3CCc3ccccc3)o2)C1 (centres undefined)		400 µM	
CC(C)C(=O)OCOP(=O)(OCOC(=O)C(C)C)c1ccc(-c2nc3c(N)ncnc3n2CCc2ccccc2)o1		25 µM	
CC(C)Cn1c(-c2ccc(P(=O)(O)O)o2)nc2c(N)nc(S(C)(=O)=O)nc21	28 µM		
Nc1ncnc2c1nc(NCCCP(=O)(O)O)n2[C@@H]1O[C@H](CO)[C@@H](O)[C@H]1O	> 100 µM		
CC(C)(C)Cn1c(-c2ccc(P(=O)(O)O)o2)nc2c(N)ncnc21		90 µM	IC50 (Adenosine kinase): > 100 µM; IC50 [3]: 390 µM; EC50 [7]: > 100 µM; EC50 [4]: > 100 µM; concentration at 1 h [8]: 38.5 µM; Drug uptake (Liver [9]): 51.3 nmol/g; Activity (Rattus norvegicus [10]): 65%; Activity (Rattus norvegicus [11]): 10; F (Rattus norvegicus [5]): 1.6%
CC(C)(C)Cn1c(-c2coc(P(=O)(O)O)c2)nc2c(N)ncnc21	> 10 µM		
CC(C)(C)Cn1c(-c2ccc(P(=O)(OCOC(=O)C(C)(C)C)OCOC(=O)C(C)(C)C)o2)nc2c(N)ncnc21			F (Rattus norvegicus [5]): 5.3%
CC(C)(C)Cn1c(-c2ccc(P(=O)(O)O)o2)nc2c(N)nc(N)nc21	5.5 µM		
CC(C)C(=O)OCOP(=O)(OCOC(=O)C(C)C)c1ccc(-c2nc3c(N)ncnc3n2CC(C)(C)C)o1		3 µM	F (Rattus norvegicus [5]): 8.1%; Drug uptake (Liver [12]): 3.5 nmol/g; Drug uptake (Liver [13]): 2 nmol/g
Cn1c(-c2nc3c(N)ncnc3n2CC(C)(C)C)ccc1P(=O)(O)O	> 10 µM		
Nc1ncnc2c1nc(SCCP(=O)(O)O)n2CCc1ccccc1	145 µM		
Nc1ncnc2[nH]c(NCCP(=O)(O)O)nc12	> 100 µM		
